Literature values, collected in article PMC6261507 (ACS applied nano materials, 2018).

System: integrin αvβ3

Question: Which “affinity towards integrin αvβ3” value does the source give for “Arg-Gly-Asp [RGD, arginine-glycine-aspartic acid]” here?
Answer: The value was “nanomolar affinity”.
